# Assay results as given in US12123017B2, “Composition and method for cultivation, expansion, preservation and/or cell pretreatment” (REGENERO S.A., priority 2017, dated 2024).
# Tested on: Umbilical cord derived mesenchymal stem cells
# Assay: Biopreservation of MSCs at 4° C. for three days (viability by trypan blue, adhesion, proliferation, migration)
# Assay type: cell-based
# Conditions: 0.1 μM in CBS, P<0.01
# Description: Approximately 200,000 umbilical cord derived mesenchymal stem cells were stored in 200 μl of commercial biopreservation solution (CBS) as a control and 200 μl of CBS supplemented with the medium supplement of the invention. The samples were kept at 4° C. for three days. Cells were resuspended in DMEM base, and viability was assessed by trypan blue exclusion assay. […] Cell adhesion was evaluated 24 hours after cells were seeded in 10 mm plates. […] Finally, the cells preserved with CBS proliferated less than those preserved in CBS with pterostilbene (FIG. 4D). Therefore, the solution of the invention improves the functionality of the cells after 3 days of biopreservation.
structure (smiles),measurement,value
COc1cc(/C=C/c2ccc(O)cc2)cc(OC)c1 [Pterostilbene],cell viability better compared to CBS alone,approximately 10%
